Read-outs that look alike come from different tables or passages of the source.
Experiments:
[1] = target: T1, hKCNQ2/3 (Homo sapiens, UniProt O43525+O43526); assay: cell-based
T1 construct: expressed in transfected cells; host or cells: CHO
Description: Test Method 1: hKCNQ2/3 Thallium Flux Assay
Test Objective: To test the in vitro concentration-response relationship of compounds using FLIPR thallium flux assay in CHO cell lines stably expressing hKCNQ2/3.
According to the split ratio, the cells were transferred to another T-75 flask containing complete cell growth medium. Note: To maintain logarithmic growth, the cells should be kept in a subconfluent monolayer state. Based on the cell doubling time, the cells were passaged every 2-3 days.
• (1) Day 1 - Cell preparation: Cells were digested as described above, and cell density and viability were determined using a Cell Countess. The volume of the single-cell suspension was adjusted with complete cell growth medium. Then, hKCNQ2/3_CHO cells were seeded onto PDL-precoated 384-well plates at a density of approximately 20,000 cells/well (30 µL/well). The plates were then incubated overnight in a 37°C, 5% CO2 humidified air incubator. • (2) Day 2 - Compound preparation: Test compounds were diluted with dimethyl sulfoxide (DMSO) to stock concentrations and stored in a -20°C freezer. A compound addition program was set up on the ECHO liquid handler, and compounds were added to the plates using the ECHO liquid handler. Retigabine (RTG) was used as a positive control at a highest concentration of 100 µM with 3-fold serial dilutions for a total of 9 doses. Buffer containing 5 mM K^+ and 1 mM Tl^+ was added to the plates. Notes: 1) K2SO4 and Tl2SO4 were prepared in 1× chloride-free buffer. Depending on the voltage-gated potassium channel involved, the concentrations of Tl^+ and K^+ should be adjusted. Tl^+ concentration is approximately 0.5-5 mM, and K^+ concentration is approximately 5-30 mM. 2) Each 1 mM solution of K2SO4 and Tl2SO4 contains 2 mM K^+ and Tl^+; the final concentration should be calculated based on the ion concentration. 3) TlCl readily precipitates and a chloride-free buffer is required. • (3) Day 2 -Assay testing: Once the cells reached the desired confluence, the cell assay plates were removed from the incubator. Assay buffer and diluted Tl^+ dye (Molecular Devices # R8222) were prepared. The medium was discarded using a Bravo liquid handler, and 25 µL of Tl^+ dye was added to each well. After 1 hour of incubation, the cell assay plates, composite plates and FLIPR tips were placed in the FLIPR^TETRA (Molecular Devices, USA) for FLIPR detection. After setting up the tips, baseline readings were taken for 60 seconds, then 12.5 µL was added from the composite plate (3×) to the cell assay plate, and data were recorded for at least 5 minutes. • (4) Data processing: Maximum signals were generated by the FLIPR software. […] Data quality control: S/B > 2.00, Z factor > 0.50.
• (1) Day 1 - Cell preparation: Cells were digested as described above, and cell density and viability were determined using a Cell Countess. The volume of the single-cell suspension was adjusted with complete cell growth medium. Then, hKCNQ2/3_CHO cells were seeded onto PDL-precoated 384-well plates at a density of approximately 20,000 cells/well (30 µL/well). The plates were then incubated overnight in a 37°C, 5% CO2 humidified air incubator. • (2) Day 2 - Compound preparation: Test compounds were diluted with dimethyl sulfoxide (DMSO) to stock concentrations and stored in a -20°C freezer. A compound addition program was set up on the ECHO liquid handler, and compounds were added to the plates using the ECHO liquid handler. Retigabine (RTG) was used as a positive control at a highest concentration of 100 µM with 3-fold serial dilutions for a total of 9 doses. Buffer containing 5 mM K^+ and 1 mM Tl^+ was added to the plates. Notes: 1) K2SO4 and Tl2SO4 were prepared in 1× chloride-free buffer. Depending on the voltage-gated potassium channel involved, the concentrations of Tl^+ and K^+ should be adjusted. Tl^+ concentration is approximately 0.5 mM -5 mM, and K^+ concentration is approximately 5 mM -30 mM.

[2] = target: T2, CYP1A2 (Homo sapiens, UniProt P05177); assay: Drug-drug interaction evaluation: CYP inhibition in human liver microsomes (cocktail method)
T2 sequence (P05177 1-516): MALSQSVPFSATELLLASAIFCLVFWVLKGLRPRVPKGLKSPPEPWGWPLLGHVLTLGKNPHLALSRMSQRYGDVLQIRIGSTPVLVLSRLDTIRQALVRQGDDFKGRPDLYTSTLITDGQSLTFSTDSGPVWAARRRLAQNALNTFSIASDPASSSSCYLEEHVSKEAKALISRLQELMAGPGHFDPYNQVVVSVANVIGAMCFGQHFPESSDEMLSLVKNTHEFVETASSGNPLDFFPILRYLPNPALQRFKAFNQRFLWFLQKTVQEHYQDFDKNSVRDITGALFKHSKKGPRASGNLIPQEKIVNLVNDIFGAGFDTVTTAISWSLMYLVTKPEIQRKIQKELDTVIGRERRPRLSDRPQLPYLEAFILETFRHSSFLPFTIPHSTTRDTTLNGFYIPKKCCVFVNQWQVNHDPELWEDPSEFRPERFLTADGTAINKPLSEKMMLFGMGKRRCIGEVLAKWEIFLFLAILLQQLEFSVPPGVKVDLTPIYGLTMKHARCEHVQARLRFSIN
Method: (§1) The cocktail method using specific probe substrates for CYP1A2, CYP2C9, CYP2C19, CYP2D6 and CYP3A was used to evaluate the inhibitory effect of the compounds on the activity of human liver microsomal cytochrome P450 isoenzymes (CYP1A2, CYP2C9, CYP2C19, CYP2D6 and CYP3A).
(§2) Human liver microsomes, probe substrates, positive control inhibitors, and reduced nicotinamide adenine dinucleotide phosphate (NADPH).
(§3) To the corresponding wells of a reaction plate, 20 µL of substrate solution was added; to blank wells, 20 µL of potassium phosphate buffer was added.
(§4) To the corresponding wells, 2 µL of test compound and positive control working solution were added; to inhibitor-free and blank wells, 2 µL of solvent was added.
(§5) Human liver microsome working solution was prepared, and 158 µL of human liver microsome working solution was added to each well of the reaction plate.
(§6) The plate was pre-incubated at 37.0°C for 10 minutes.
(§7) To start the reaction, 20 µL of NADPH cofactor working solution was added to the reaction plate.
(§8) After incubation in a 37.0°C water bath with mixing for 10 minutes, 400 µL of stop solution was added to terminate the reaction.
(§9) The sample plate was centrifuged at 4000 rpm for 20 minutes.
(§10) 200 µL of supernatant was taken and mixed with 100 µL of pure water as diluent, and the plate was shaken to mix well.
(§11) Analysis was performed by liquid chromatography-tandem mass spectrometry (LC-MS/MS).
(§12) Using the percentage of remaining activity as the ordinate and the test compound concentration as the abscissa, a non-linear regression analysis was performed with a three-parameter or four-parameter model using XL fit software to calculate the IC50 value.
(§13) y = (max)/(1 + (((x)/(IC50)))^−hillslope) [formula]
(§14) y = min + (max−min)/(1 + (((x)/(IC50)))^−hillslope) [formula]
(§15) max = maximum enzyme activity; min = minimum enzyme activity; x = concentration of test compound or positive control inhibitor; y = enzyme activity at the corresponding concentration; hillslope = slope; IC50 = half-maximal inhibitory concentration. The four-parameter equation was used when the minimum enzyme activity was within ±10%; otherwise the three-parameter equation was used.

[3] = target: CYP2C9 (Homo sapiens, UniProt P11712); assay: as above
Chain of CYP2C9 (P11712 whole entry): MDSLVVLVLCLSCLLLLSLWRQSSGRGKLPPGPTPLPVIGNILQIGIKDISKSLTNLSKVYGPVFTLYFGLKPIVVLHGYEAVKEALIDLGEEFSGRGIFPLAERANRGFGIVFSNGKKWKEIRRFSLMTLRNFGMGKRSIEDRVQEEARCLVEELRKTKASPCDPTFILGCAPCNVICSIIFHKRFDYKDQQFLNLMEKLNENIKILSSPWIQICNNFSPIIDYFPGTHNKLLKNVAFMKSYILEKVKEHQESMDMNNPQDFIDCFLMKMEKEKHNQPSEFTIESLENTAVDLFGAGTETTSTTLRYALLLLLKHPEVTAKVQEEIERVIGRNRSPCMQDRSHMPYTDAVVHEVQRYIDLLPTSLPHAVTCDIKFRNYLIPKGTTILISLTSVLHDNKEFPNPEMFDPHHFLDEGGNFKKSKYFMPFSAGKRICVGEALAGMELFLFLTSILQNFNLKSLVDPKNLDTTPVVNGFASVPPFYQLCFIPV
Method: as §1, §2, §3, §4, §5, §6, §7, §8, §9, §10, §11, §12, §13, §14, §15

[4] = target: CYP2D6 (Homo sapiens, UniProt P10635); assay: as above
Chain of CYP2D6 (P10635 whole entry): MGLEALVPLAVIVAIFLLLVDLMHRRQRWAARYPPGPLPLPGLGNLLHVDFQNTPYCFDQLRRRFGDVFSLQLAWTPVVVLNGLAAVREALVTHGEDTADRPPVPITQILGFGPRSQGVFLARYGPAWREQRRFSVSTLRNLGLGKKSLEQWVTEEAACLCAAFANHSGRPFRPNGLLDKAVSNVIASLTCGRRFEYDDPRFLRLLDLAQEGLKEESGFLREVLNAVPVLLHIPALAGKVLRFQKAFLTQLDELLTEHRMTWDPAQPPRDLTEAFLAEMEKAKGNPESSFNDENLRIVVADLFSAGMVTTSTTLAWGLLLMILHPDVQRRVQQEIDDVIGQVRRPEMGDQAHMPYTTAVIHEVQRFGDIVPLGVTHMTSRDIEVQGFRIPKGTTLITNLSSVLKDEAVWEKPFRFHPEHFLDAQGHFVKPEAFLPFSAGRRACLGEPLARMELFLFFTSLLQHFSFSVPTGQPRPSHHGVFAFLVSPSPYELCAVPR
Method: as §1, §2, §3, §4, §5, §6, §7, §8, §9, §10, §11, §12, §13, §14, §15

[5] = target: CYP3A4 (Homo sapiens, UniProt P08684); assay: as above
Chain of CYP3A4 (P08684 2-503): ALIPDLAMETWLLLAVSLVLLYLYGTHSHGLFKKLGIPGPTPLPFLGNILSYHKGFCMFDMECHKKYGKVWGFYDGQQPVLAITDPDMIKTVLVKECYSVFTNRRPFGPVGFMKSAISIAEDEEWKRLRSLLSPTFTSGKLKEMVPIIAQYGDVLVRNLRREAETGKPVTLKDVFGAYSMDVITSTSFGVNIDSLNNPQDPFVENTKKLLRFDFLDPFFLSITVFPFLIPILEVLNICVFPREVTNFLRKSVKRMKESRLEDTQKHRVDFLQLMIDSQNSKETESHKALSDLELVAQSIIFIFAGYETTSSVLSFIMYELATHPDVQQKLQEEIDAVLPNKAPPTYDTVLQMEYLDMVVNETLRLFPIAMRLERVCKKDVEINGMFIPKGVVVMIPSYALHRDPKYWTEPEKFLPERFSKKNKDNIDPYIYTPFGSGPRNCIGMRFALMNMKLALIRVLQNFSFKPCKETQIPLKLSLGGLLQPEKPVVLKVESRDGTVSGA
Method: as §1, §2, §3, §4, §5, §6, §7, §8, §9, §10, §11, §12, §13, §14, §15

[6] = target: CYP2C19 (Homo sapiens, UniProt P33261); assay: as above
Chain of CYP2C19 (P33261 whole entry): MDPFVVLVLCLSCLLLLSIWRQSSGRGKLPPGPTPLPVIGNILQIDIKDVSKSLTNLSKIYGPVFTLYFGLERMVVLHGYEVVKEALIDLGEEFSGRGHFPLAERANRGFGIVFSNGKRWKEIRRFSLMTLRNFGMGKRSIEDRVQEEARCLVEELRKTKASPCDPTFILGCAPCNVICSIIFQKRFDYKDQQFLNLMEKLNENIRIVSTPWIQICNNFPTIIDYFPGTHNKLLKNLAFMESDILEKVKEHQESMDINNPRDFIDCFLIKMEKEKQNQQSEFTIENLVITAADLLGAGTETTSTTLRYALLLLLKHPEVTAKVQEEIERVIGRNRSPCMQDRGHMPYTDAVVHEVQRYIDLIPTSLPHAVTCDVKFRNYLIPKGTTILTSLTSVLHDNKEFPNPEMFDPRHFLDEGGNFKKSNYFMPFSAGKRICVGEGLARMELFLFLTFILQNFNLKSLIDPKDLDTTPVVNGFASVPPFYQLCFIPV
Method: as §1, §2, §3, §4, §5, §6, §7, §8, §9, §10, §11, §12, §13, §14, §15

[7] = Pharmacokinetic evaluation in mice (IV and PO); type: in vivo; conditions: mouse, plasma, CD-1 mice; for half-life: IV, read-out: Half-life T1/2 (IV) (converted); for AUC(0-t): PO, read-out: Area under the concentration-time curve AUC0-last PO; for bioavailability: read-out: Bioavailability F; for clearance: read-out: Clearance CL; for Cmax: read-out: Peak plasma concentration Cmax; for Vd: read-out: Volume of distribution Vdss
Method: Test Method 2: Pharmacokinetic Evaluation in Mice
Assay method: Test compounds were mixed with 5% DMSO / 60% polyethylene glycol (PEG400) / 35% water, vortexed and sonicated to obtain a clear 0.2 mg/mL solution, which was then filtered through a microporous membrane before use. Male CD-1 mice weighing 25-35 g were selected. The candidate compound solution was administered intravenously at a dose of 1 mg/kg. The candidate compound solution was orally administered at a dose of 5 mg/kg after fasting. Blood samples (25 µL each) were collected at 0.083, 0.25, 0.5, 1, 2, 4, 8, 12 and 24 hours after administration, and placed into commercial anticoagulant tubes pre-containing EDTA-K2. The tubes were centrifuged for 10 minutes to separate plasma, which was then stored at -60°C. The content of the target compound in plasma samples was determined by LC/MS/MS method, and pharmacokinetic parameters were calculated using Phoenix WinNonlin software (Pharsight, USA).
Tlast: time of the last detection point. AUC0-last: (Area Under the Concentration-Time Curve) refers to the area enclosed by the plasma drug concentration curve and the time axis. F (Bioavailability) is a measure of the rate and extent to which a drug is absorbed into the systemic circulation, serving as a critical indicator for evaluating the degree of drug absorption. […]

[8] = system: maximal electroshock-induced epilepsy model; assay: Maximal electroshock-induced epilepsy model, behavioral pharmacodynamics; type: in vivo; conditions: dose 5 mg/kg, oral, one hour before electrical stimulation; male CD-1 mice
Description: Assay Example 2: Evaluation of the behavioral pharmacodynamics of the test compounds in a maximal electroshock-induced epilepsy model
This study used behavioral tests in male CD-1 mice to investigate the effects of test compounds on acute epileptic seizures behavior induced by maximal electroshock.
Male CD-1 mice (25 to 35g) were used as the experimental animals and fed with standard feed (Beijing Vital River Laboratory Animal Technology Co., Ltd.).
After arriving at the animal facility, the experimental animals needed to acclimatize for at least one week. The mice were observed daily for vital signs, and randomly divided into groups according to their body weights one day before the drug administration. One hour before the electrical stimulation, different dosages of the test compound were orally administered to each group. On the day of the assay, the male CD-1 mice in each group were anesthetized locally at the cornea with 2% lidocaine. Then, silver bipolar electrodes were used to electrically stimulate the cornea of the mice with 18 mA, 60 Hz, a pulse width of 0.6 ms, and a stimulation time of 1 s to induce seizures. Subsequently, the latency of seizures and the duration of limb rigidity in mice after the electrical stimulation were observed, and the protection rate from seizures for each group was statistically analyzed.

[9] = agonistic effect, CHO cells stably expressing hKCNQ2/3, FLIPR thallium flux, read-out: EC50

T1 sequence (O43526 whole entry): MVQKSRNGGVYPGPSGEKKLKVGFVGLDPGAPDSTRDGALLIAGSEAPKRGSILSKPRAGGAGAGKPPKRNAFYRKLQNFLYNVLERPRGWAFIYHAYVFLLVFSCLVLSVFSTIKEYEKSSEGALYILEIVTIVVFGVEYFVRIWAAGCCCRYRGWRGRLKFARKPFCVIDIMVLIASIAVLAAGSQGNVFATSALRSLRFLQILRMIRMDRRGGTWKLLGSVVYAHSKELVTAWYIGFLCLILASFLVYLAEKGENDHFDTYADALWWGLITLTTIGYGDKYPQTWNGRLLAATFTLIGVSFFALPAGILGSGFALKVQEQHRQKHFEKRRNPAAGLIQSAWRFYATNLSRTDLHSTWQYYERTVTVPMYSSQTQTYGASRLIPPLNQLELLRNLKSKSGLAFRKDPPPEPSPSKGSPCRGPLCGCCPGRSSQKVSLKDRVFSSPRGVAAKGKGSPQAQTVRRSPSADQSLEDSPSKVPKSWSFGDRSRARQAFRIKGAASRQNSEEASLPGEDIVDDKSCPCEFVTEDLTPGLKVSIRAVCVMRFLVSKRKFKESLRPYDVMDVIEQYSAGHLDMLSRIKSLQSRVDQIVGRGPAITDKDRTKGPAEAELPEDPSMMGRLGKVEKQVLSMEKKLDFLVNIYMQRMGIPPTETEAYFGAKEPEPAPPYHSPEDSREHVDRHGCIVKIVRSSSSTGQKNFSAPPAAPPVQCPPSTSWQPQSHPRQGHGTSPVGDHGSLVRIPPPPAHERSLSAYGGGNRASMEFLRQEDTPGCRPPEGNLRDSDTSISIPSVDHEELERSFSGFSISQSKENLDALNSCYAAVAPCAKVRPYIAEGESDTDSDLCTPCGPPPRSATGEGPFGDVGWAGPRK
T1 sequence (O43525 whole entry): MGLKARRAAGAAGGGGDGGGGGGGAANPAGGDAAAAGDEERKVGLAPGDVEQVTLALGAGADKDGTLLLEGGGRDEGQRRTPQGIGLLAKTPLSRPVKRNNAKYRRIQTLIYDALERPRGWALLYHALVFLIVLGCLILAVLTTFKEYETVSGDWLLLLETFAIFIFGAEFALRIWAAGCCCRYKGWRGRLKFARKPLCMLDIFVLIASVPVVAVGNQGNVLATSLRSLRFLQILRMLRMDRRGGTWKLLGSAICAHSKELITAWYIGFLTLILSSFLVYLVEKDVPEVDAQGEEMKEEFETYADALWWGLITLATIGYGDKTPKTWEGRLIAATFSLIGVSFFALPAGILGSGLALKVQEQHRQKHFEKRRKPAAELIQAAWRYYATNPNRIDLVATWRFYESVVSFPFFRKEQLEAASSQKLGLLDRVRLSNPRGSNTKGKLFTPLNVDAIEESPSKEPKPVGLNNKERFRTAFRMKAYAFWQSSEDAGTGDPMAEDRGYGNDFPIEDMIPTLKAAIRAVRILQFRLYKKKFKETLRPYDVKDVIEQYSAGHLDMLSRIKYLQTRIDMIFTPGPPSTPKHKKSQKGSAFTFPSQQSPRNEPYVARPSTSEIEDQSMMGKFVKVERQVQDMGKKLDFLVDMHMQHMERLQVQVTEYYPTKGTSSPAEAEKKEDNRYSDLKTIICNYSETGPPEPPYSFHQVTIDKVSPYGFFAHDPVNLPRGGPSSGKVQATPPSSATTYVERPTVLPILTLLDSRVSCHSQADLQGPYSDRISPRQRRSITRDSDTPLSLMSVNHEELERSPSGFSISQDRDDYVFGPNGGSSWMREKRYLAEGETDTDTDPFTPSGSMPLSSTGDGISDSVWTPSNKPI

CCC(=O)Nc1c(C)c2ccc(Nc3ccc(F)cc3)cc2n1C [Compound 16]
EC50 [1, 9]: 700 nM

Cc1c(NC(=O)CC(C)(C)C)n(C)c2cc(Nc3ncc(F)cn3)ccc12 [Compound 38]
EC50 [1, 9]: 820 nM

Cc1c(NC(=O)CC2(C)CC2)n(C)c2cc(Nc3ccc(F)cc3)ccc12 [Compound 12]
IC50 [2]: 20000 nM
IC50 [3]: 11000 nM
IC50 [4]: 15000 nM
IC50 [5]: 37000 nM
IC50 [6]: 13000 nM
EC50 [1]: 800 nM

CC(C)(C)CC(=O)Nc1nc2c(F)cc(Nc3ccc(F)cc3)cc2n1C1CCC1 [Compound 4]
half-life ([7]; dose IV:0.5, PO:2 mg/kg): 1.2 h
AUC(0-t) ([7]; dose IV:0.5, PO:2 mg/kg): 2.98 µM·h
bioavailability ([7]; dose IV:0.5, PO:2 mg/kg): 64.2%
clearance ([7]; dose IV:0.5, PO:2 mg/kg): 17.9 mL/min/kg
Cmax ([7]; dose IV:0.5, PO:2 mg/kg): 548 nM
Vd ([7]; dose IV:0.5, PO:2 mg/kg): 2.14 L/kg

Cc1c(NC(=O)C2CCCC2)n(C)c2cc(Nc3ccc(F)cn3)ccc12 [Compound 21]
EC50 [1, 9]: 220 nM

Cc1c(NC(=O)CC(C)(C)C)n(C)c2cc(Nc3ccc(F)cn3)ccc12 [Compound 11]
half-life ([7]; dose IV:0.5, PO:2 mg/kg): 0.7 h
AUC(0-t) ([7]; dose IV:0.5, PO:2 mg/kg): 1.11 µM·h
bioavailability ([7]; dose IV:0.5, PO:2 mg/kg): 62.2%
clearance ([7]; dose IV:0.5, PO:2 mg/kg): 50.3 mL/min/kg
Cmax ([7]; dose IV:0.5, PO:2 mg/kg): 524 nM
Vd ([7]; dose IV:0.5, PO:2 mg/kg): 2 L/kg
EC50 [1]: 200 nM

Cc1c(NC(=O)CC(C)(C)C)n(C)c2cc(Nc3ccc(Cl)cn3)ccc12 [Compound 30]
EC50 [1, 9]: 210 nM

Cc1c(NC(=O)CC2(C)CC2)n(C)c2cc(Nc3ccc(F)cn3)ccc12 [Compound 28]
EC50 [1, 9]: 560 nM

Cc1nc(Nc2ccc3c(C)c(NC(=O)CC4(C)CC4)n(C)c3c2)ccc1F [Compound 36]
half-life ([7]; dose IV:1, PO:5 mg/kg): 1.7 h
AUC(0-t) ([7]; dose IV:1, PO:5 mg/kg): 29.5 µM·h
bioavailability ([7]; dose IV:1, PO:5 mg/kg): 92.7%
clearance ([7]; dose IV:1, PO:5 mg/kg): 6.9 mL/min/kg
Cmax ([7]; dose IV:1, PO:5 mg/kg): 4750 nM
Vd ([7]; dose IV:1, PO:5 mg/kg): 0.8 L/kg
Seizure incidence (%) [8]: 0%
EC50 [1]: 220 nM

Cc1ccc(Nc2ccc3c(C)c(NC(=O)CC(C)(C)C)n(C)c3c2)nc1 [Compound 29]
EC50 [1, 9]: 410 nM

Cc1c(NC(=O)C2CC2)n(C)c2cc(Nc3ccc(F)cc3)ccc12 [Compound 13]
EC50 [1, 9]: 500 nM

Cc1c(NC(=O)CC(C)(C)C)n(C)c2cc(Nc3ncc(F)cc3F)ccc12 [Compound 26]
IC50 [2]: 19000 nM
IC50 [3]: > 50000 nM
IC50 [4]: > 50000 nM
IC50 [5]: > 50000 nM
IC50 [6]: 44000 nM
EC50 [1]: 400 nM

Cc1c(NC(=O)C2CCC2)n(C)c2cc(Nc3ccc(F)cn3)ccc12 [Compound 22]
EC50 [1, 9]: 430 nM

Source: patent EP4810483A1, “6- AND 5-HETEROARYL DERIVATIVES AND USE THEREOF” (CMS Research & Development Pte. Ltd., priority 2023, dated 2025)
